These results are taken from patent publication US8273708B2, “Methods of treatment of ocular surface pathologies” (priority 2004, dated 2012).

“Also recorded” adds a separate entry of the source.

What all share (type): in vivo, rat
Series [1] deals with male Wistar rats. The series can be described thus: Ocular inflammation (neutrophil infiltration) induced by corneal instillation of benzalkonium chloride: total MPO activity in the eye. As for the experimental part:
FIG. 3: Experimental protocol for example 2. Animals received two pretreatments with ML-7 [1 mg/kg given by the intraperitoneal (IP) route] on the day before instillation of 0.1% BAK (in the morning and evening) and one pretreatment two hours before instillation. They were sacrificed six hours after rinsing and the eyes were excised in order to assay MPO activity.
The benzalkonium salt (BAK) corneal irritation model has been widely used in both in vitro and in vivo studies. The protocol is based on an in vitro study (Xu et al., 2000) adapted to in vivo conditions in the rat after preliminary tests to adjust times and concentrations.
Animals: Male Wistar rats (200-250 g) housed in individual cages were used. Animals were given a standard diet (UAR, Villemoisson, Epinay sur Orge) and drinking water ad libitum.
Inflammation induction: Inflammation was induced by instillation in the eye of 10 μl of 0.1% BAK solution (1 mg/ml). The control eye was instilled with 10 μl of 1×PBS. Ten minutes after instillation, the eyes were rinsed with 1 ml of sterile water.
Assay of myeloperoxidase activity: The eyes were excised and homogenized in phosphate buffer with the aid of a polytron. They were then subjected to three freeze/thaw cycles (liquid nitrogen/37° C. water bath). After centrifugation at 10,000 rpm for 15 min at 4° C., the pellets were resuspended in HTAB buffer and sonicated for 10 sec. After a second centrifugation, MPO activity was assayed in the supernatant in a reaction buffer containing O-dianisidine hydrochloride and 0.0005% hydrogen peroxide. The change in absorbance at 460 nm was measured on a spectrophotometer.
Experimental protocol: Animals received two pretreatments with ML-7 (1 mg/kg IP) on the day before instillation of 0.1% BAK (morning and evening) and one pretreatment two hours before instillation. They were sacrificed six hours after rinsing and the eyes were excised in order to assay total myeloperoxidase (MPO) activity (FIG. 3).

In series [2] the test system is male Wistar rats. The series can be described thus: Polynuclear eosinophil infiltration induced by benzalkonium chloride, Direct Red count in the venous plexus region of the sclera. Particulars: for number of polynuclear eosinophils in the venous plexus region of the sclera after benzalkonium chloride: 10 μl of 0.5% benzalkonium chloride, after six hours. An excerpt:
Upper panel: histological images after Direct Red staining. Lower panel: eosinophil count in venous plexus of sclera, density per square mm (means±SD; n=8)
(§1) Animals: Four groups of male Wistar rats (Janvier, Le Genest St Isle, France), weighing 300-350 g were used: BAK+sodium carmellose, BAK+ML-7, PBS+sodium carmellose, PBS+ML-7; PBS and sodium carmellose being the solvents for benzalkonium (BAK) and ML-7, respectively.
(§2) ML-7 pretreatment: Animals received a local application of ML-7 (Sigma, France) 24 hours, 12 hours and 30 minutes before chemical induction of ocular inflammation. Thus, each eye was treated with 100 μg of ML-7 in 10 μl of eye drops (sodium carmellose 4 mg/0.4 ml) or with 10 μl of eye drops alone.
(§3) Inflammation induction: Thirty minutes after the third application of ML-7 or the eye drops alone, each eye was treated with 10 μl of 0.5% benzalkonium chloride (Sigma-Aldrich, Steinheim, Germany) in PBS or 10 μl of PBS alone. After 10 minutes, the eyes of all the rats were rinsed with 250 μl of sterile water.
(§4) Eye excision: Six hours after application of benzalkonium chloride or PBS, the animals were anesthetized with pentobarbital (80 mg/kg IP) (Ceva Santé Animale, Libourne, France), sacrificed by decapitation and the eyes were immediately excised to be frozen directly or after surface biotinylation (tight junction permeability test).
Measurement of polynuclear eosinophil infiltration: Polynuclear eosinophil leukocytes were specifically stained with Direct Red and counted in the venous plexus region of the sclera. […] Eosinophils, stained bright pink against a light background, were counted in the venous plexus region of the sclera under a Nikon Eclipse 90 i microscope equipped with a Nikon DXM1200F digital camera. The area of the zone to be counted was determined with Nikon Lucia image analysis software release 4.8 and counts were expressed as the number of eosinophils per mm^2. […]

Series [3] deals with corneal epithelial tight junctions. Description: Corneal tight junction permeability by surface biotinylation after benzalkonium chloride.
Excerpt: Images obtained by fluorescence of the external corneal surface in the rat after ex vivo avidin-fluorescein biotinylation of the whole eye by avidin-fluorescein following cryosection (6 μm) (external side of cornea facing up)
as §1, §2, §3, §4
Measurement of tight junction permeability—Surface biotinylation: The permeability of tight junctions in the cornea was evaluated by biotinylation of surface proteins. The chosen biotinylation reagent is water-soluble and contains an aminocaproyl spacer group, which lowers steric hindrance during avidin coupling. Immediately after excision, the eyes were incubated for 30 minutes at room temperature with gentle stirring in a solution containing sodium biotinamidohexanecarboxylate and 3-sulfó-N-hydroxysuccinimide at 1 mg/mL, in PBS (Sigma-Aldrich, Steinheim, Germany). The eyes were then rinsed three times in PBS, embedded in protective tissue freezing medium (Tissue Tek® OCT compound, Sakura Finetek, Inc., CA, USA), frozen in liquid nitrogen and stored at −80° C. Six micrometer thick slices were prepared with a cryostat and fixed in cold acetone for 10 minutes. After drying, the slices were labelled for 30 minutes in the dark with avidin D-FITC (Vector Laboratories, Inc., Burlingame, Calif., USA) diluted 250-fold in PBS-Tween containing 1% BSA, then rinsed three times for 5 minutes in PBS-Tween, in the dark. The slides were then mounted in fluorescence medium (Cappel fluorostab embedding medium, MP Biomedicals, Inc., Aurora, Ohio, USA) and examined under a Nikon Eclipse 90 i fluorescence microscope equipped with a Nikon DXM1200F digital camera. The images were analyzed with Nikon Lucia image analysis software release 4.8. As no significant differences in corneal thickness were observed between the different experimental groups (102±10 μm, 110±9 μm, 115±13 μm and 124±8 μm for BAK+sodium carmellose, BAK+ML-7, PBS+sodium carmellose and PBS+ML-7 groups, respectively), the depth of fluorescence labelling reflects the permeability of external corneal epithelial tight junctions to the biotinylation reagent.

The test system of series [4] is male Wistar rats. Description: Ocular inflammation induced by corneal instillation of P48/80: total MPO activity in the whole eye. Particulars: ML-7 1 mg/kg IP, two pretreatments the day before and one two hours before instillation. The protocol:
FIG. 1: Experimental protocol for example 1.
The corneal irritation model which was used has been validated in the rat (Allansmith et al., Acta Ophtalmol, 1989; 192S: 145-153) and in the rabbit (Bucolo et al., J. Ocul. Pharmacol, 1993; 9: 321-332).
Animals: Three groups of eight male Wistar rats (200-250 g) housed in individual cages were used. Animals were given a standard diet (UAR, Villemoisson, Epinay sur Orge) and drinking water ad libitum.
The control eye was instilled with 10 μl of 1×PBS.
Assay of myeloperoxidase activity: The eyes were excised and homogenized in phosphate buffer with the aid of a polytron. They were then subjected to three freeze/thaw cycles (liquid nitrogen/37° C. water bath). After centrifugation at 10,000 rpm for 15 min at 4° C., the pellets were resuspended in HTAB buffer and sonicated for 10 sec. After a second centrifugation, MPO activity was assayed from the supernatant in a reaction buffer containing O-dianisidine hydrochloride and 0.0005% hydrogen peroxide. The change in absorbance at 460 nm was measured on a spectrophotometer.
They were sacrificed six hours after instillation and the eyes were excised in order to assay total myeloperoxidase (MPO) activity in the whole eye (FIG. 1).

For the compound benzalkonium chloride, the “total MPO activity in the eye after benzalkonium chloride” value in the series on male Wistar rats [1] (10 μl of 0.1% BAK, rinsed after 10 minutes, after six hours) amounted to 26.4±7.2 U/g.protein. Also, the “increase in total MPO activity after benzalkonium chloride” value with male Wistar rats [1] (versus baseline 8.2±1.9 U/g.protein, after six hours) is given as 321%. Besides, the “number of polynuclear eosinophils in the venous plexus region of the sclera after benzalkonium chloride” value in the series on male Wistar rats [2] was “highly significant increase”; in the series on male Wistar rats [2] (listed as BAK), “highly significant”. In addition, the “effect of benzalkonium chloride on corneal epithelial tight junctions (fluorescent penetration)” value in series [3] (10 μl of 0.5% benzalkonium chloride, after six hours) is listed as “opening of corneal epithelial tight junctions”. In series [3] (BAK+sodium carmellose group), this compound had a corneal thickness of 102±10 μm.
Turning to `O=S(=O)(c1cccc2c(I)cccc12)N1CCCNCC1` [ML-7, 1-(5-iodonaphthalene-1-sulfonyl)-1H-hexahydro-1,4-diazepine], the “effect of ML-7 on the P48/80-induced increase in MPO activity” value with male Wistar rats [4] is listed as “prevented; also recorded: inhibited”. Further, in the series on male Wistar rats [1] (ML-7 1 mg/kg IP, two pretreatments the day before and one two hours before instillation), the “effect of ML-7 on the benzalkonium chloride-induced increase in MPO activity” value is reported as “suppressed; also recorded: inhibited”. Further, the “effect of ML-7 on benzalkonium chloride-induced polynuclear eosinophil infiltration” value in the series with male Wistar rats [2] (local application, 100 μg ML-7 in 10 μl eye drops, 24 hours, 12 hours and 30 minutes before BAK) was “significantly inhibited”. The results for the corneal thickness in series [3] (BAK+ML-7 group) and in series [3] (PBS+ML-7 group) were 110±9 μm and 124±8 μm, respectively. Moreover, the “effect of ML-7 on the BAK-induced increase in diffusion and thickening of the fluorescent zone” value in series [3] (local pretreatment, 100 μg ML-7 per eye, 24 hours, 12 hours and 30 minutes before BAK) was “suppressed”.
